Measured values as given in patent publication US20180207069A1, “COSMETIC USE OF A MONOUNSATURATED FATTY ACID OR ONE OF ITS SALTS AND/OR OF ITS ESTERS AS DEODORANT ACTIVE AGENT” (L'OREAL, priority 2012, published 2018).
≈ marks a conversion by molar mass, not a printed value.

How the values were obtained:
Type in all cases: cell-based
Corynebacterium striatum [1] = assay: GC/MS (SPME) analysis of volatile compounds of cultures, C. striatum; settings: C. striatum culture, 37° C., 48 hours
Description: (§1) The four microorganisms were each cultured in a liquid medium comprising 1.6 g/l of KH2PO4, 5.0 g/l of (NH4)2HPO4, 0.38 g/l of Na2SO4, 3.35 g/l of yeast nitrogen base (difco), 0.5 g/l of yeast extract and 0.5 g/l of MgCl2.6H2O, 1.0 g/l of Tween 80, 1.0 g/l of valine, 1.0 g/l of leucine, 1.0 g/l of isoleucine and 1.0 g/l of methionine. Depending on the analyses to be carried out (profile of the odour by GC/MS or sensory evaluation), the various types of culture medium were prepared either in 2 ml of culture (high-throughput screening format in 96-well microtitration plates) or else 200 ml in Erlenmeyer flasks. For the GC/MS analyses, 2 ml of culture are sufficient but, for the sensory evaluation, for a panel of 12 people, the minimum amount of 200 ml of culture is necessary. […]
(§2) The strains were cultured aerobically at 37° C. for 48 hours. The magnitude of the growth was measured with the optical density (OD) at 600 nm. The cultures were subsequently analyzed for volatile odorous compounds by SPME-GC/MS. […]
(§3) In order to determine the relative amount of volatile compounds present in the culture medium, a solid phase microextraction (SPME; Supelco, USA), gas chromatography coupled with mass spectrometry (HS-SPME-GC/MS; Fisons, USA), is carried out. […] The mass spectra were recorded over an m/z range of 30-250. […]

[2] = system: Corynebacterium mucifaciens; assay: GC/MS (SPME) analysis of volatile compounds of cultures, C. mucifaciens; settings: C. mucifaciens culture, 37° C., 48 hours
Description: as §1, §2, §3

Corynebacterium striatum [3] = assay: In vitro sensory evaluation of culture odour, C. striatum; settings: petroselinic acid 0.05 g/l in culture medium, panel of 12 experts
Description: as §1, with “flasks.” for “flasks. For the GC/MS analyses, 2 ml of culture are sufficient but, for the sensory evaluation, for a panel of 12 people, the minimum amount of 200 ml of culture is necessary.”
as §2
(§4) For the sensory analysis, the minimum amount of 200 ml of culture medium is necessary for a panel of 12 experts. […] Before the sensory analysis, the cultures were sterilized by filtration and the filtrates were stored at 4° C. until analyzed. In a first phase, the profile of the odour was evaluated on the basis of the strongest odours by the sensory panel, with an intensity grade which varies from 1 to 4 (1—a little, 2—moderate, 3—strong and 4—very strong). […]

[4] = system: Staphylococcus epidermidis; assay: GC/MS (SPME) analysis of volatile compounds of cultures, S. epidermidis; settings: S. epidermidis culture, 37° C., 48 hours
Description: as §1, §2, §3

[5] = system: Corynebacterium mucifaciens; assay: In vitro sensory evaluation of culture odour, C. mucifaciens; settings: petroselinic acid 0.05 g/l in culture medium, panel of 12 experts
Description: as §1, with “flasks.” for “flasks. For the GC/MS analyses, 2 ml of culture are sufficient but, for the sensory evaluation, for a panel of 12 people, the minimum amount of 200 ml of culture is necessary.”
as §2, §4

[6] = system: Staphylococcus epidermidis; assay: In vitro sensory evaluation of culture odour, S. epidermidis; settings: petroselinic acid 0.05 g/l in culture medium, panel of 12 experts
Description: as §1, with “flasks.” for “flasks. For the GC/MS analyses, 2 ml of culture are sufficient but, for the sensory evaluation, for a panel of 12 people, the minimum amount of 200 ml of culture is necessary.”
as §2, §4

Corynebacterium xerosis = assay: Minimum Inhibitory Concentration (MIC), C. xerosis; settings: DSM20743, read-out: Minimum Inhibitory Concentration (MIC) C. xerosis
Description: (§5) The Minimum Inhibitory Concentration (MIC) on the microorganisms Corynebacterium striatum, Corynebacterium mucifaciens and Corynebacterium xerosis with the following active agents was compared.

[7] = system: Corynebacterium mucifaciens; assay: Minimum Inhibitory Concentration (MIC), C. mucifaciens; settings: LMG19067, read-out: Minimum Inhibitory Concentration (MIC) C. mucifaciens
Description: as §5

Corynebacterium striatum [8] = assay: Minimum Inhibitory Concentration (MIC), C. striatum; settings: LMG19648, read-out: Minimum Inhibitory Concentration (MIC) C. striatum
Description: as §5

[9] = acid added to culture medium (petroselinic 0.05, linolenic 0.5, myristic 0.005, azelaic 0.5 g/l)
[10] = petroselinic acid 0.05 g/l in culture medium

Row | Compound | amount of aldehydes (Corynebacterium striatum [1]; [9]) | concentration of ketone compounds (Corynebacterium striatum [1]; [10]) | aldehydes in the odour profile [2, 9] | concentration of ketone compounds [2, 10] | description of the odour notes (Corynebacterium striatum [3]) | resulting odour as perceived by the panel of experts (Corynebacterium striatum [3]) | amount of aldehydes [4, 9] | concentration of ketone compounds [4, 10] | description of the scent [5] | perception of the odour [5] | description of the odour notes [6] | resulting odour as perceived by the panel of experts [6] | MIC (Corynebacterium xerosis) | MIC [7] | MIC (Corynebacterium striatum [8])
1 | CCCCCCCCCCC/C=C\CCCCC(=O)O [Petroselinic acid] | significant reduction | greater concentration | noticeable reduction | greater concentration | fresher notes with scents described as “green” and “putty” | more pleasant | significant reduction | greater concentration | scent described as “putty” | more pleasant | fresher notes with scents described as “green” and “putty” | more pleasant |  |  | 
2 | Oc1cc(Cl)ccc1Oc1ccc(Cl)cc1Cl [Triclosan, 2,4,4′-trichloro-2′-hydroxydiphenyl ether] |  |  |  |  |  |  |  |  |  |  |  |  | 50 µg/mL (≈ 173 µM) | 25 µg/mL (≈ 86.3 µM) | 10 µg/mL (≈ 34.5 µM)
